Measured values published in patent publication US10233186B2, “Inhibitors of activin receptor-like kinase” (BLUEPRINT MEDICINES CORPORATION, priority 2016, dated 2019).

Experiments:
human ALK2 R206H = molecular target: T1, human ALK2 R206H (Homo sapiens, UniProt Q04771, R206H); test: Cell-based ALK2-R206H cell activity assay (Smad1-Ser463/Ser465 phosphorylation by AlphaLISA in HEK293-ALK2-R206H cells); settings: read-out: Cell Line (Cell Assay IC50)
T1 construct: expressed in transfected cells; host or cells: HEK293 (ATCC CRL1573), lentivirus transduction, blasticidin selection
T1 sequence (Q04771 21-509 R206H): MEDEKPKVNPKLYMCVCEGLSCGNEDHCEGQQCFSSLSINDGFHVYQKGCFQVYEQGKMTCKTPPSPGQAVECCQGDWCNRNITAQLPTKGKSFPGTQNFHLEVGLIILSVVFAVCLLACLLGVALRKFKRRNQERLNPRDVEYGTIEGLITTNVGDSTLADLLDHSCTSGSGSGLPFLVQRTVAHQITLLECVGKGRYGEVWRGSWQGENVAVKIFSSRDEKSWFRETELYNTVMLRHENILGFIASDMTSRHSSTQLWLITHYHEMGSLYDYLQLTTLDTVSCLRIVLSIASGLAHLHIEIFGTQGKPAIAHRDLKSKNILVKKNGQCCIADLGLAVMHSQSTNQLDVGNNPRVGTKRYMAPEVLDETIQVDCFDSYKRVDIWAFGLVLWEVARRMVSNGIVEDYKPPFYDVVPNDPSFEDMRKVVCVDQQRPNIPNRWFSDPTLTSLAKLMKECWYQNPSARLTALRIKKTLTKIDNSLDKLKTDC
Method: A HEK293 (ATCC, Cat^# CRL1573) based stable cell line expressing human ALK2 R206H cDNA (synthesized by GeneScript, Piscataway, N.J.) and a FLAG tag at the C-terminus was generated by lentivirus transduction and subsequent blasticidin (Life Technologies, Cat^#-A1113902) selection at 10 μg/ml for >2 wks. This cell line was named HEK293-ALK2-R206H.
Test compounds were first diluted to 4 mM or 0.4 mM and then serially diluted 3-fold into 10 different concentrations using DMSO. […] Two μl of the diluted compounds were then dispensed into the HEK293-ALK2-R206H cell-containing wells of the microplates in duplicates. In this way, each compound was tested in 10 doses (3-fold serial dilution with the top concentration being 10 μM or 1 μM). Liquid handling was achieved using a Bravo Automated Liquid Handling Platform (Agilent Technologies). DMSO without compound was used as a negative control. The positive control was 1 μM LDN193189, a known bone morphogenetic protein (BMP inhibitor).
The 10-point dose response curve was used to calculate the IC50 values.
Blank values in the table indicate that the particular compound was not tested in this assay.

[1] = molecular target: T2, ALK2 R206H (GST-tagged mutant ALK2) (Homo sapiens, UniProt Q04771, R206H); test: ALK binding assay (LANTHASCREEN TR-FRET competitive binding, displacement of Kinase Tracer 178); settings: ALK2 R206H, LANTHASCREEN TR-FRET competitive binding; read-out: Binding Assay (IC50)
T2 construct: purchased Carna Bioscience or ThermoFisher 09-148 or PV6232
T2 sequence (Q04771 21-509 R206H): T1 sequence (Q04771 21-509 R206H)

SMILES	IC50 (human ALK2 R206H)	IC50 [1]
C[C@H]1CN(c2ccc(-c3cc4c(N5CCN(C(=O)C6CC6)CC5)ccnn4c3)cc2)CCN1 [Compound 156]	< 0.1 µM	< 0.01 µM
NC1CCN(c2ccc(-c3cc4c(N5CCN(C(=O)C6CC6)CC5)ccnn4c3)cc2)CC1 [Compound 158]	0.1 to 0.5 µM	< 0.01 µM
O=C(C1CC1)N1CCN(c2ccnn3cc(-c4ccc(OC5CCCNC5)cc4)cc23)CC1 (centres unmarked) [Compound 159]	< 0.1 µM	< 0.01 µM
O=C(C1CC1)N1CCN(c2ccnn3cc(-c4ccc(OC5CCNCC5)cc4)cc23)CC1 [Compound 160]	0.1 to 0.5 µM	< 0.01 µM
CCN1CC(O)(c2ccc(-c3cc4c(N5CCN(C(=O)C6CC6)CC5)ccnn4c3)cc2)C1 [Compound 161]	< 0.1 µM	< 0.01 µM
O=C(C1CC1)N1CCN(c2ccnn3cc(-c4ccc(O[C@@H]5CCCNC5)cc4)cc23)CC1 [Compound 162]	< 0.1 µM	< 0.01 µM
O=C(C1CC1)N1CCN(c2ccnn3cc(-c4ccc(O[C@H]5CCCNC5)cc4)cc23)CC1 [Compound 163]	< 0.1 µM	< 0.01 µM
C[C@@H]1CNC[C@H](c2ccc(-c3cc4c(N5CCN(C(=O)C6CC6)CC5)ccnn4c3)cc2)O1 [Compound 164]	0.1 to 0.5 µM	< 0.01 µM
CCN1CC(Oc2ccc(-c3cc4c(N5CCN(C(=O)C6CC6)CC5)ccnn4c3)cc2)C1 [Compound 167]	< 0.1 µM	< 0.01 µM
C[C@H]1CNC[C@H](c2ccc(-c3cc4c(N5CCN(C(=O)C6CC6)CC5)ccnn4c3)cc2)O1 [Compound 169]	0.1 to 0.5 µM	< 0.01 µM
C[C@@H]1CN(c2ccnn3cc(-c4ccc(N5CCNCC5)nc4)cc23)CCN1C(=O)C1CC1 [Compound 170]	0.1 to 0.5 µM	0.01 to 0.05 µM
O=C(C1CC1)N1CCN(c2ccnn3cc(-c4ccc(C5(O)CCOCC5)cc4)cc23)CC1 [Compound 172]	0.1 to 0.5 µM	< 0.01 µM
CCC(=O)N1CCN(c2ccnn3cc(-c4ccc(N5CCN(CC)CC5)cc4)cc23)CC1 [Compound 173]	> 0.5 µM	0.01 to 0.05 µM
O=C(C1CC1)N1CCN(c2ccnn3cc(-c4ccc(C5CCNCC5F)cc4)cc23)CC1 (centres unmarked) [Compound 174]	0.1 to 0.5 µM	< 0.01 µM
O=C(C1CC1)N1CCN(c2ccnn3cc(-c4ccc(C5(F)CCCNC5)cc4)cc23)CC1 (centres unmarked) [Compound 177]	< 0.1 µM	< 0.01 µM
O=C(C1CC1)N1CCN(c2ccnn3cc(-c4ccc([C@@]5(F)CCCNC5)cc4)cc23)CC1 [Compound 178]	< 0.1 µM	< 0.01 µM
O=C(C1CC1)N1CCN(c2ccnn3cc(-c4ccc([C@]5(F)CCCNC5)cc4)cc23)CC1 [Compound 179]	< 0.1 µM	< 0.01 µM
CCOC(=O)N1CCN(c2ccnn3cc(-c4ccc([C@H]5CCN(CC)C5)cc4)cc23)CC1 [Compound 181]	< 0.1 µM	< 0.01 µM
CCOC(=O)N1CCN(c2ccnn3cc(-c4ccc(C5CN(C(C)C)C5)cc4)cc23)CC1 [Compound 182]	< 0.1 µM	< 0.01 µM
O=C([C@H]1C[C@@H]1F)N1CCN(c2ccnn3cc(-c4ccc(N5CCNCC5)cc4)cc23)CC1 [Compound 184]	< 0.1 µM	< 0.01 µM
O=C([C@H]1C[C@H]1F)N1CCN(c2ccnn3cc(-c4ccc(N5CCNCC5)cc4)cc23)CC1 [Compound 185]	< 0.1 µM	< 0.01 µM
O=C([C@@H]1C[C@H]1F)N1CCN(c2ccnn3cc(-c4ccc(N5CCNCC5)nc4)cc23)CC1 [Compound 186]	0.1 to 0.5 µM	< 0.01 µM
CC(C)N1CCc2cc(-c3cc4c(N5CCN(C(=O)C6CC6)CC5)ccnn4c3)sc2C1 [Compound 187]	< 0.1 µM	< 0.01 µM
CCNC(=O)N1CCN(c2ccnn3cc(-c4ccc([C@]5(F)CCCNC5)cc4)cc23)CC1 [Compound 188]	< 0.1 µM	< 0.01 µM
CCNC(=O)N1CCN(c2ccnn3cc(-c4ccc([C@@]5(F)CCCNC5)cc4)cc23)CC1 [Compound 189]	< 0.1 µM	< 0.01 µM
